{"source": "patent US12594292B2", "about": "“Antiviral prodrugs, intermediate-and long-acting formulations and methods” (priority 2022, dated 2026)", "key": {"[1]": {"test_system": "Huh7.5", "experiment": "Antiviral evaluation of cyanobenzyl analogs, Huh7.5", "type": "cell-based"}, "[2]": {"experiment": "in vitro", "conditions": "human"}, "[3]": {"experiment": "in vitro", "conditions": "human", "remark": "listed apart in the source"}, "[4]": {"test_system": "Calu 3", "experiment": "Antiviral evaluation of cyanobenzyl analogs, Calu 3", "type": "cell-based"}, "[5]": {"test_system": "Calu 3", "experiment": "Cytotoxicity of cyanobenzyl analogs, Calu 3"}, "[6]": {"test_system": "Huh7.5", "experiment": "Cytotoxicity of cyanobenzyl analogs, Huh7.5"}, "[7]": {"experiment": "Seven day oral pharmacokinetics in Syrian hamsters", "type": "in vivo", "conditions": "after oral administration of ODBG-P-RVn", "method": "ODBG-P-RVn in 0.1M sodium carbonate/bicarbonate buffer, pH 9.0, was administered to Syrian Hamsters by oral gavage every 12 hours for seven days. ODBG-P-RVn was present as the sodium salt.\nFIG. 4A and FIG. 4B depict the seven day oral pharmacokinetics in Syrian hamsters. Syrian hamsters were given vehicle or ODBG-P-RVn by oral gavage every 12 hours for 7 days. Groups of 3 animals received vehicle or drug at doses of 16.9 and 13.2 mg/kg. Animals were weighed daily and monitored for clinical signs.\nAnalytical Methods: ODBG-P-RVn: Hamster plasma samples (10 μL) containing ODBG-P-RVn and K2EDTA as the anticoagulant were added to polypropylene tubes containing water (100 μL), internal standard solution (10 μL; 1,000 ng/mL of ODE-P-RVn in ACN:DMF (1:1, v/v)), and 10 μL of ACN:DMF (1:1, v/v). The solutions were mixed, then acidified with phosphoric acid, 85% w/v:water (1:19, v/v; 10 μL), mixed, then diluted with 200 μL of IPA, mixed, then diluted with 500 μL of water, and mixed. The samples were extracted with a Sep-Pak® tC18 96-well solid phase extraction plate (25 mg; Waters, Milford, MA). Extraction occurred under positive pressure conditions using nitrogen. Samples were washed serially with 1 mL of water:acetonitrile:formic acid (475:25:0.5, v/v/v) and 0.4 mL of water:acetonitrile:formic acid (350:150:0.5, v/v/v) before being serially eluted with 100 μL and 150 μL of water:{acetonitrile:isopropyl alcohol (1:1, v/v)}:formic acid:ammonium formate:citric acid solution, 2% w/v (15:85:0.1:0.1:0.1, v/v/v/w/v). The citric acid solution was prepared as water:citric acid monohydrate (20:0.4, v/w). After elution, 100 μL of water was added to each sample. The ODBG-P-RVn extracts were analyzed using an Agilent 1200 HPLC system (Agilent, Santa Clara, CA) coupled to an API5500 mass analyzer (SCIEX, Foster City, CA). Analytes were chromatographically separated using a Dacapo DX-C18 MF column (100×2 mm, 2.5 μm; ImtaktUSA, Portland, OR) using a mobile phase system consisting of Mobile Phase A (water:formic acid:[water:ammonium formate:citric acid (25:5:0.5, v/w/w)](1.000:1:1, v/v/v) and Mobile Phase B (acetonitrile:isopropyl alcohol:formic acid:[water:ammonium formate:citric acid (25:5:0.5, v/w/w)](800:200:1:1, v/v/v/v). The total analytical run time was 4.5 minutes. The mobile phase was nebulized using heated nitrogen in a Turbo-V source/interface set to electrospray positive ionization mode. The ionized compounds were detected using multiple reaction monitoring with transitions m/z 788.4>229 (V2043) and 668.4>467.2 (V2041). This method is applicable for measuring ODBG-P-RVn concentrations ranging from 6.25 to 3,000 ng/mL using 10.0 μL of plasma for extraction. The peak areas of ODBG-P-RVn and RVn were acquired using Analyst v. 1.6.2 (SCIEX, Framingham, MA). The calibration curve was obtained by fitting the peak area ratios of the analyte/I.S. and the standard concentrations to a linear equation with 1/x2 weighting, using Analyst. The equation of the calibration curve was then used to interpolate the concentrations of the analyte in the samples using their peak area ratios. The peak areas used for the calculations were not rounded.\nThe solutions were mixed and centrifuged at 16,000 g for five minutes. […] The GS-441524 extracts were analyzed using an Acquity UPLC system (Waters, Milford, MA) coupled to a G2-S QTof mass analyzer (Waters, Milford, MA). […]"}, "[8]": {"experiment": "in vitro", "conditions": "human", "remark": "listed apart in the source"}, "[9]": {"experiment": "in vitro", "conditions": "African green monkey"}, "[10]": {"test_system": "SARS-CoV-2 isolate USA-WA1/2020", "experiment": "SARS-CoV-2 infection in PSC-human lung cells, qRT-PCR (Example 7)", "type": "cell-based", "conditions": "Severe acute respiratory syndrome coronavirus 2; PSC-human lung cells, MOI 0.01, 48 hours"}, "[11]": {"experiment": "CellTiter-Glo luminescent cell viability assay, Vero E6 (Example 3)", "type": "cell-based", "conditions": "African green monkey", "method": "CellTiter-glo luminescent cell viability assay: Approximately 10^4 Vero E6 cells per well were seeded in opaque walled 96 well cell culture plates and incubated overnight. Compounds or controls were added at the indicated concentrations. […] Viability was calculated compared to untreated controls and CC50 values were calculated using Prism 8.\nDetermination of Cytotoxicity: The 50% cytotoxic concentrations (CC50) were determined with Cell Titer Glo (Cat. #G7570, Promega, Madison, WI) according to the manufacturer's instructions. The calculated CC50 values are shown in the foregoing table.\nRelative viability was measured by CellTiter-Glo luminescent cell viability assay, as depicted at FIG. 2."}, "[12]": {"experiment": "in vitro", "conditions": "human", "remark": "listed apart in the source"}, "[13]": {"test_system": "SARS-CoV-2 isolate USA-WA1/2020", "experiment": "SARS-CoV-2 infection in Caco-2 cells, qRT-PCR (Example 7)", "type": "cell-based", "conditions": "Severe acute respiratory syndrome coronavirus 2; Caco-2 cells, MOI 0.01, 48 hours"}, "[14]": {"experiment": "in vitro", "conditions": "human", "remark": "listed apart in the source"}, "[15]": {"experiment": "in vitro", "conditions": "human", "remark": "listed apart in the source"}}, "note": "Where two headings read alike, the source gives them in different places.", "data": [{"molecule": "CCCCCCCCCCCCCCCCCCOC[C@H](COP(=O)(O)OC[C@H]1O[C@@](C#N)(c2ccc3c(N)ncnn23)[C@@H](O)C1O)OCc1ccccc1C#N", "note": "(some centres unmarked) [OD(2-CN-Bn)G-P-RVn, 1-O-Octadecyl-2-O-(2-cyanobenzyl)-sn-glyceryl-phospho-RVn]", "values": [{"measurement": "EC50", "setting": "[1]", "value": "10.2 ± 17", "unit": "nM"}, {"measurement": "EC90", "setting": "[1]", "value": "281 ± 30", "unit": "nM"}, {"measurement": "SI", "setting": "[1]", "value": ">980"}, {"measurement": "CC50", "setting": "[2]", "value": "> 100000", "unit": "nM"}, {"measurement": "CC50", "setting": "[3]", "value": 82800, "unit": "nM"}, {"measurement": "SI", "setting": "[4]; Calu 3", "value": 909}, {"measurement": "EC50", "setting": "[4]; Calu-3", "value": "91 ± 25", "unit": "nM"}, {"measurement": "EC90", "setting": "[4]; Calu-3", "value": "186 ± 47", "unit": "nM"}]}, {"molecule": "CCCCCCCCCCCCCCCCCCOC[C@H](COP(=O)(O)OC[C@H]1O[C@@](C#N)(c2ccc3c(N)ncnn23)[C@H](O)[C@@H]1O)OCc1cccc(C#N)c1", "note": "[OD(3-CN-Bn)G-P-RVn, 1-O-Octadecyl-2-O-(3-cyanobenzyl)-sn-glyceryl-phospho-RVn]", "values": [{"measurement": "CC50", "setting": "[5]", "value": 61600, "unit": "nM"}, {"measurement": "CC50", "setting": "[6]", "value": 49600, "unit": "nM"}, {"measurement": "SI", "setting": "[1]", "value": 2066}, {"measurement": "EC50", "setting": "[1]; read-out: EC50", "value": "24 ± 6", "unit": "nM"}, {"measurement": "EC90", "setting": "[1]; read-out: EC90", "value": "77 ± 17", "unit": "nM"}, {"measurement": "SI", "setting": "[4]; Calu 3", "value": 1810}, {"measurement": "EC50", "setting": "[4]; Calu 3, read-out: EC50", "value": "34 ± 7", "unit": "nM"}, {"measurement": "EC90", "setting": "[4]; Calu 3, read-out: EC90", "value": "65 ± 36", "unit": "nM"}]}, {"molecule": "N#C[C@@]1(c2ccc3c(N)ncnn23)O[C@H](CO)[C@@H](O)[C@H]1O", "note": "[RVn, 2-C-(4-aminopyrrolo[2,1-f][1,2,4]triazin-7-yl)-2,5-anhydro-D-altrononitrile, reference compound]", "values": [{"measurement": "plasma levels of RVn versus EC90 for RVn in PSC lung cells and Vero E6 cells", "setting": "[7]", "value": "less than the EC90"}, {"measurement": "time of peak plasma levels of RVn, the nucleoside metabolite of ODBG-P-RVn", "setting": "[7]", "value": 3, "unit": "h"}, {"measurement": "CC50 at 48.5 h", "setting": "[8]", "value": "> 100000", "unit": "nM"}, {"measurement": "CC50 at 48.5 h", "setting": "[9]", "value": "> 100000", "unit": "nM"}, {"measurement": "EC90", "setting": "[10]", "value": 2620, "unit": "nM"}, {"measurement": "CC50 at 48.5 h", "setting": "[11]", "value": "> 100000", "unit": "nM"}, {"measurement": "CC50 at 48.5 h", "setting": "[12]", "value": "> 100000", "unit": "nM"}, {"measurement": "EC90", "setting": "[13]", "value": 1750, "unit": "nM"}, {"measurement": "CC50 at 48.5 h", "setting": "[14]", "value": "> 100000", "unit": "nM"}, {"measurement": "CC50 at 48.5 h", "setting": "[15]", "value": "> 100000", "unit": "nM"}]}]}
